Assay results reported in ChEMBL document CHEMBL1125663, “Function of negative charge in the "address domain" of deltorphins” (J Med Chem, 1991).
Square brackets hold non-standard residues; d marks the D form. Peptide text beside a SMILES is read from it.

Legend:
Format in all cases: cell membranes
[1] = biological target: T1, Delta-type opioid receptor (Rattus norvegicus, UniProt P33533); assay: Inhibition of [3H]-DADLE binding to opioid receptor delta in P2 membrane preparation of rat brain
[2] = biological target: T2, Mu-type opioid receptor (Rattus norvegicus, UniProt P33535); assay: Binding affinity against Opioid receptor mu 1 in P2 membrane preparation of rat brain by [3H]DAGO displacement.
T2 sequence (P33535 whole entry): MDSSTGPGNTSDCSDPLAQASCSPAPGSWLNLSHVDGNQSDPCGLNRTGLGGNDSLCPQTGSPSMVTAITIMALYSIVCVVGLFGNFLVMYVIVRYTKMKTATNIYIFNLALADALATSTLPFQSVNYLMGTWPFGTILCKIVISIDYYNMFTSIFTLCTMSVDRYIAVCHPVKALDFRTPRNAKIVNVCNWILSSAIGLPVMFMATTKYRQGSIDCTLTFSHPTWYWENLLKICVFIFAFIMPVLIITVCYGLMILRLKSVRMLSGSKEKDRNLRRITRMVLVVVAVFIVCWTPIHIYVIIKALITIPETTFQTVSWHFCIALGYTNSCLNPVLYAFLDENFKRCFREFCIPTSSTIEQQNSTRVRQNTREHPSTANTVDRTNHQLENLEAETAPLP

[3] = biological target: T1, Delta-type opioid receptor; assay: Binding affinity against Opioid receptor delta 1 in P2 membrane preparation of rat brain by [3H]DADLE displacement.
[4] = biological target: T2, Mu-type opioid receptor; assay: Inhibition of [3H]DAGO binding to trat brain opioid receptor mu in P2 membrane

T1 sequence (P33533 whole entry): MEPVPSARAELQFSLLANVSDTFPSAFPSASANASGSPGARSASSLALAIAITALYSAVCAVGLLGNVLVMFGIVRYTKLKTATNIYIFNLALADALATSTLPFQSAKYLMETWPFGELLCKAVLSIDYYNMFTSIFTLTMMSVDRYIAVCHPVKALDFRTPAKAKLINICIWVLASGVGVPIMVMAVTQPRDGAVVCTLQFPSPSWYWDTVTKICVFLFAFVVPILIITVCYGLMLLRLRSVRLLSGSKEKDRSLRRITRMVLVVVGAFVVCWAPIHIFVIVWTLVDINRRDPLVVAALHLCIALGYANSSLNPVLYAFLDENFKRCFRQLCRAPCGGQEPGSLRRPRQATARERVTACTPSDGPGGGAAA

Row | SMILES | Ki [1] [nM] | Ki [2] [nM] | Ki [3] [nM] | Ki [4] [nM]
1 | CC(C)[C@H](NC(=O)[C@H](CCC(=O)O)NC(=O)[C@H](Cc1ccccc1)NC(=O)[C@H](C)NC(=O)[C@@H](N)Cc1ccc(O)cc1)C(=O)N[C@H](C(=O)NCC(=O)O)C(C)C [DELTORPHINE II] | 0.31 |  |  | 
2 | CSCC[C@@H](NC(=O)[C@@H](N)Cc1ccc(O)cc1)C(=O)N[C@@H](Cc1ccccc1)C(=O)N[C@@H](Cc1cnc[nH]1)C(=O)N[C@@H](CC(C)C)C(=O)N[C@@H](CC(=O)O)C(=O)N[C@@H](CC(=O)O)C(=O)O |  | 2090 | 6.01 | 
3 | CCCC[C@H](NC(=O)[C@H](CC(C)C)NC(=O)[C@H](Cc1cnc[nH]1)NC(=O)[C@H](Cc1ccccc1)NC(=O)[C@@H](CCSC)NC(=O)[C@@H](N)Cc1ccc(O)cc1)C(=O)N[C@@H](CC(=O)O)C(N)=O |  | 206 | 0.22 | 
4 | CC(C)[C@H](NC(=O)[C@H](CCC(=O)O)NC(=O)[C@H](Cc1ccccc1)NC(=O)[C@@H](C)NC(=O)[C@@H](N)Cc1ccc(O)cc1)C(=O)N[C@H](C(=O)NCC(=O)O)C(C)C [DELTORPHIN] | 7.97 |  |  | 
5 | CSCC[C@H](NC(=O)[C@H](CC(=O)O)NC(=O)[C@H](CC(=O)O)NC(=O)[C@H](Cc1ccccc1)NC(=O)[C@@H](CCSC)NC(=O)[C@@H](N)Cc1ccc(O)cc1)C(=O)N[C@@H](Cc1c[nH]cn1)C(N)=O |  | 1570 | 1900 | 
6 | CSCC[C@H](NC(=O)[C@H](CC(C)C)NC(=O)[C@H](Cc1cnc[nH]1)NC(=O)[C@H](Cc1ccccc1)NC(=O)[C@@H](CCSC)NC(=O)[C@@H](N)Cc1ccc(O)cc1)C(=O)N[C@@H](CC(=O)O)C(C)=O |  | 3220 | 155 | 
7 | CSCC[C@H](NC(=O)[C@H](CC(C)C)NC(=O)[C@H](Cc1c[nH]cn1)NC(=O)[C@H](Cc1ccccc1)NC(=O)[C@@H](CCSC)NC(=O)[C@@H](N)Cc1ccc(O)cc1)C(=O)N[C@@H](CC(N)=O)C(N)=O |  | 119 | 0.22 | 
8 | C[C@@H](NC(=O)[C@@H](N)Cc1ccc(O)cc1)C(=O)N[C@@H](Cc1ccccc1)C(=O)NCC(=O)N[C@@H](Cc1ccc(O)cc1)C(=O)N1CCC[C@H]1C(=O)N[C@@H](CO)C(N)=O [DERMORPHIN] |  | 0.7 |  | 
9 | C[C@@H](NC(=O)[C@@H](N)Cc1ccc(O)cc1)C(=O)NCC(=O)N(C)[C@@H](Cc1ccccc1)C(=O)NCCO [DAMGO] |  |  | 180 | 
10 | CC(C)[C@H](NC(=O)[C@H](CC(=O)O)NC(=O)[C@H](Cc1ccccc1)NC(=O)[C@H](C)NC(=O)[C@@H](N)Cc1ccc(O)cc1)C(=O)N[C@H](C(=O)NCC(=O)O)C(C)C |  | 1640 | 6.01 | 
11 | CSCC[C@H](NC(=O)[C@H](CC(C)C)NC(=O)[C@H](Cc1c[nH]cn1)NC(=O)[C@H](Cc1ccccc1)NC(=O)[C@@H](CCSC)NC(=O)[C@@H](N)Cc1ccc(O)cc1)C(=O)N[C@@H](CC(=O)O)C(=O)O (H-Y[dM]FHLMD-OH) |  | 2690 | 10.8 | 
12 | CC(C)[C@H](NC(=O)CNC(=O)[C@H](Cc1ccccc1)NC(=O)[C@H](C)NC(=O)[C@@H](N)Cc1ccc(O)cc1)C(=O)N[C@H](C(=O)N[C@@H](CC(=O)O)C(=O)O)C(C)C (H-YAFGVVD-OH) |  | 57.5 | 8.79 | 
13 | CC(C)[C@H](NC(=O)[C@H](CCC(N)=O)NC(=O)[C@H](Cc1ccccc1)NC(=O)[C@@H](C)NC(=O)[C@@H](N)Cc1ccc(O)cc1)C(=O)N[C@H](C(=O)NCC(=O)O)C(C)C |  | 153 | 0.2 | 
14 | CSCC[C@H](NC(=O)[C@H](CC(C)C)NC(=O)[C@H](Cc1cnc[nH]1)NC(=O)[C@H](Cc1ccccc1)NC(=O)[C@@H](CCSC)NC(=O)[C@@H](N)Cc1ccc(O)cc1)C(=O)N[C@@H](CC(=O)O)C(N)=O [DELTORPHIN A] (H-Y[dM]FHLMD-NH2) |  | 336 | 0.12 | 
15 | CC(C)[C@H](NC(=O)[C@H](CC(N)=O)NC(=O)[C@H](Cc1ccccc1)NC(=O)[C@H](C)NC(=O)[C@@H](N)Cc1ccc(O)cc1)C(=O)N[C@H](C(=O)NCC(N)=O)C(C)C (H-YAFNVVG-NH2) | 0.65 |  |  | 176
16 | CSCC[C@H](NC(=O)[C@H](CC(C)C)NC(=O)[C@H](CC(=O)O)NC(=O)[C@H](Cc1ccccc1)NC(=O)[C@@H](CCSC)NC(=O)[C@@H](N)Cc1ccc(O)cc1)C(=O)N[C@@H](CC(=O)O)C(N)=O |  | 10600 | 7.71 | 
17 | CC(C)[C@H](NC(=O)[C@H](Cc1ccccc1)NC(=O)[C@H](C)NC(=O)[C@@H](N)Cc1ccc(O)cc1)C(=O)N[C@H](C(=O)N[C@@H](CC(=O)O)C(=O)NCC(N)=O)C(C)C (H-YAFVVDG-NH2) |  | 149 | 9.42 | 
18 | CC(C)[C@H](NC(=O)[C@H](CC(=O)O)NC(=O)[C@@H](NC(=O)[C@H](Cc1ccccc1)NC(=O)[C@H](C)NC(=O)[C@@H](N)Cc1ccc(O)cc1)C(C)C)C(=O)NCC(N)=O (H-YAFVDVG-NH2) |  | 275 | 1.23 | 
19 | CC(C)[C@H](NC(=O)[C@H](CC(=O)O)NC(=O)[C@H](Cc1ccccc1)NC(=O)[C@@H](C)NC(=O)[C@@H](N)Cc1ccc(O)cc1)C(=O)N[C@H](C(=O)NCC(N)=O)C(C)C [DELTORPHIN C] | 0.21 |  |  | 387
20 | CSCC[C@@H](NC(=O)[C@@H](N)Cc1ccc(O)cc1)C(=O)N[C@@H](Cc1ccccc1)C(=O)N[C@@H](Cc1cnc[nH]1)C(=O)N[C@@H](CC(C)C)C(=O)N[C@@H](CC(=O)O)C(=O)N[C@@H](CC(=O)O)C(N)=O |  | 3410 | 3.08 | 
